Experimental data from patent US5041567A, “Antibacterial monic acid derivatives” (Beecham Group plc, priority 1982, dated 1991).
≈ marks a conversion by molar mass, not a printed value. Where two headings read alike, the source gives them in different places.

Key:
P. mirabilis 889 = test: MIC against human bacteria in vitro; type: cell-based
[1] = tested on: M. suipneumoniae J2206/183^b; test: MIC against mycoplasma in vitro; type: cell-based; conditions: Mesomycoplasma hyopneumoniae, 144 h
M. suipneumoniae JF 435 = test: MIC against mycoplasma in vitro; type: cell-based; conditions: Mesomycoplasma hyopneumoniae, JF435, 144 h
Past. multocida PA2 = test: MIC against veterinary bacteria in vitro; conditions: Pasteurella multocida, PA2, 18 h
Protocol: (§1) The activity of the compounds of the Examples against various veterinarily important bacteria, was assayed in vitro using two-fold serial dilutions in Diagnostic Sensitivity Test Agar inoculated with 10^4 organisms.

M. hyorhinis ATCC 23234 = test: MIC against mycoplasma in vitro; type: cell-based; conditions: Mesomycoplasma hyorhinis, ATCC23234, 144 h
M. suipneumoniae Str. 11 = test: MIC against mycoplasma in vitro; type: cell-based; conditions: Mesomycoplasma hyopneumoniae
Strep. dysgalactiae SPD1 = test: MIC against veterinary bacteria in vitro; conditions: Streptococcus dysgalactiae, SPD1, 18 h
Protocol: as §1

M. dispar NCTC 10125 = test: MIC against mycoplasma in vitro; type: cell-based; conditions: 144 h
[2] = tested on: Corynebacterium pyogenes CY1; test: MIC against veterinary bacteria in vitro; conditions: CY1, 18 h
Protocol: as §1

Strep. pneumoniae CN33 = test: MIC against human bacteria in vitro; type: cell-based; conditions: Streptococcus pneumoniae; Strep. pneumoniae CN33; 5% chocolated horse blood agar, 18 hours; read-out: MIC
M. suipneumoniae UCD 1 = test: MIC against mycoplasma in vitro; type: cell-based; conditions: Mesomycoplasma hyopneumoniae, UCD1, 144 h
Staph. aureus Oxford [3] = test: MIC against veterinary bacteria in vitro; conditions: Staphylococcus aureus, 18 h
Protocol: as §1

[4] = tested on: Erysipelothrix rhusiopathiae NCTC 8163; test: MIC against veterinary bacteria in vitro; conditions: Erysipelothrix rhusiopathiae, NCTC8163, 18 h
Protocol: as §1

[5] = tested on: M. bovigenitalium ATCC 14173; test: MIC against mycoplasma in vitro; type: cell-based; conditions: 144 h
Bord. bronchiseptica B08 = test: MIC against veterinary bacteria in vitro; conditions: Bordetella bronchiseptica, B08, 18 h
Protocol: as §1

M. bovis NCTC 10131 = test: microbe, parasite or virus in culture; type: cell-based; conditions: NCTC10131, 144 h
M. gallisepticum S6 = test: MIC against mycoplasma in vitro; type: cell-based; conditions: Mycoplasmoides gallisepticum, 144 h; M. gallisepticum S6; 6 days, 37° C.; read-out: MIC
[6] = tested on: Staph. aureus 152 (pen. sens); test: MIC against veterinary bacteria in vitro; conditions: Staphylococcus aureus, 18 h
Protocol: as §1

M. suipneumoniae TAM 6N = test: MIC against mycoplasma in vitro; type: cell-based; conditions: Mesomycoplasma hyopneumoniae, TAM6N, 144 h
K. aerogenes A = test: MIC against human bacteria in vitro; type: cell-based; conditions: Klebsiella aerogenes; K. aerogenes A; 5% chocolated horse blood agar, 18 hours; read-out: MIC
M. hyorhinis ATCC 25021 = test: MIC against mycoplasma in vitro; type: cell-based; conditions: Mesomycoplasma hyorhinis, ATCC25021, 144 h
M. suipneumoniae MS 16 = test: MIC against mycoplasma in vitro; type: cell-based; conditions: Mesomycoplasma hyopneumoniae, MS16, 144 h
[7] = tested on: Pasteurella multocida 1633; test: MIC against human bacteria in vitro; type: cell-based; conditions: Pasteurella multocida 1633; 5% chocolated horse blood agar, 18 hours; read-out: MIC
Strep. faecalis I = test: MIC against human bacteria in vitro; type: cell-based; conditions: Enterococcus faecalis; Strep. faecalis I; 5% chocolated horse blood agar, 18 hours; read-out: MIC
[8] = tested on: M. suipneumoniae PW/C/210; test: MIC against mycoplasma in vitro; type: cell-based; conditions: Mesomycoplasma hyopneumoniae, 144 h
Sarcina lutea 8340 = test: MIC against human bacteria in vitro; type: cell-based; conditions: Micrococcus luteus; Sarcina lutea 8340; 5% chocolated horse blood agar, 18 hours; read-out: MIC
M. suipneumoniae NB12 = test: MIC against mycoplasma in vitro; type: cell-based; conditions: Mesomycoplasma hyopneumoniae
Staph. aureus Oxford [9] = test: MIC against human bacteria in vitro; type: cell-based; conditions: Staphylococcus aureus; Staph. aureus Oxford; 5% chocolated horse blood agar, 18 hours; read-out: MIC
Staph. aureus W2827 = test: MIC against human bacteria in vitro; type: cell-based; conditions: Staphylococcus aureus; Staph. aureus W2827; 5% chocolated horse blood agar, 18 hours; read-out: MIC
[10] = tested on: Staph. aureus B4 (pen. resistant); test: MIC against veterinary bacteria in vitro; conditions: Staphylococcus aureus, 18 h
Protocol: as §1

[11] = tested on: M. suipneumoniae NCTC 10110; test: MIC against mycoplasma in vitro; type: cell-based; conditions: Mesomycoplasma hyopneumoniae, NCTC10110, 144 h
M. suipneumoniae HK(2) = test: MIC against mycoplasma in vitro; type: cell-based; conditions: Mesomycoplasma hyopneumoniae, 144 h
Strep. agalactiae 2788-B = test: MIC against human bacteria in vitro; type: cell-based; conditions: Streptococcus agalactiae; Strep. agalactiae 2788-B; 5% chocolated horse blood agar, 18 hours; read-out: MIC
[12] = tested on: Strep. suis (group D) SPS11; test: MIC against veterinary bacteria in vitro; conditions: Streptococcus suis, 18 h
Protocol: as §1

S. typhimurium S18 = test: MIC against veterinary bacteria in vitro; conditions: Salmonella enterica, TYPHIMURIUM, 18 h
Protocol: as §1

| SMILES | MIC (Past. multocida PA2) | MIC (Strep. dysgalactiae SPD1) | MIC [2] | MIC (Strep. pneumoniae CN33) | MIC (Staph. aureus Oxford [3]) | MIC [4] | MIC (Bord. bronchiseptica B08) | MIC (M. bovis NCTC 10131) | MIC (M. gallisepticum S6) | MIC [6] | MIC (K. aerogenes A) | MIC [7] | MIC (Strep. faecalis I) | MIC (Sarcina lutea 8340) | MIC (Staph. aureus Oxford [9]) | MIC (Staph. aureus W2827) | MIC [10] | MIC (Strep. agalactiae 2788-B) | MIC [12] | MIC (S. typhimurium S18) | also measured |
| --- | --- | --- | --- | --- | --- | --- | --- | --- | --- | --- | --- | --- | --- | --- | --- | --- | --- | --- | --- | --- | --- |
| C/C(=C\c1ncc(-c2ccc([N+](=O)[O-])cc2)o1)C[C@@H]1OC[C@H](C[C@@H]2O[C@H]2[C@@H](C)[C@H](C)O)[C@@H](O)[C@H]1O [Example 3, 5-p-nitro-phenyl-2-(1-normon-2-yl)-oxazole A] | 0.625 µg/mL (≈ 1.28 µM) | 0.312 µg/mL (≈ 0.639 µM) | 80 µg/mL (≈ 164 µM) | 0.5 µg/mL (≈ 1.02 µM) | 0.312 µg/mL (≈ 0.639 µM) | > 80 µg/mL | 40 µg/mL (≈ 81.9 µM) | 0.025 µg/mL (≈ 0.0512 µM) | 0.5 µg/mL (≈ 1.02 µM) | 0.312 µg/mL (≈ 0.639 µM) | 100 µg/mL (≈ 205 µM) | 0.5 µg/mL (≈ 1.02 µM) | 50 µg/mL (≈ 102 µM) | > 100 µg/mL | 0.2 µg/mL (≈ 0.409 µM) | 1 µg/mL (≈ 2.05 µM) | 0.312 µg/mL (≈ 0.639 µM) | 0.5 µg/mL (≈ 1.02 µM) | 2.5 µg/mL (≈ 5.12 µM) | > 80 µg/mL | MIC (P. mirabilis 889; Proteus mirabilis, 889, 18 h): 50 µg/mL (≈ 102 µM); MIC ([1]; M. suipneumoniae J2206/183^b, 6 days, 37° C., read-out: MIC): 0.25 µg/mL (≈ 0.512 µM); MIC (M. suipneumoniae JF 435; M. suipneumoniae JF 435, 6 days, 37° C., read-out: MIC): 0.25 µg/mL (≈ 0.512 µM); MIC (M. hyorhinis ATCC 23234; M. hyorhinis ATCC 23234, 6 days, 37° C., read-out: MIC): 0.1 µg/mL (≈ 0.205 µM); MIC (M. suipneumoniae Str. 11; 144 h, M. suipneumoniae Str. 11, 6 days, 37° C., read-out: MIC): 0.1 µg/mL (≈ 0.205 µM); MIC (M. dispar NCTC 10125; M. dispar NCTC 10125, 6 days, 37° C., read-out: MIC): 0.05 µg/mL (≈ 0.102 µM); MIC (M. suipneumoniae UCD 1; M. suipneumoniae UCD 1, 6 days, 37° C., read-out: MIC): 0.25 µg/mL (≈ 0.512 µM); MIC ([5]; M. bovigenitalium ATCC 14173, 6 days, 37° C., read-out: MIC): 0.05 µg/mL (≈ 0.102 µM); MIC (M. suipneumoniae TAM 6N; M. suipneumoniae TAM 6N, 6 days, 37° C., read-out: MIC): 0.25 µg/mL (≈ 0.512 µM); MIC (M. hyorhinis ATCC 25021; M. hyorhinis ATCC 25021, 6 days, 37° C., read-out: MIC): 0.05 µg/mL (≈ 0.102 µM); MIC (M. suipneumoniae MS 16; M. suipneumoniae MS 16, 6 days, 37° C., read-out: MIC): 0.05 µg/mL (≈ 0.102 µM); MIC ([8]; M. suipneumoniae PW/C/210, 6 days, 37° C., read-out: MIC): 0.1 µg/mL (≈ 0.205 µM); MIC (M. suipneumoniae NB12; 144 h, M. suipneumoniae NB12, Friis broth, 0.9% agarose, 6 days, 37° C., read-out: MIC): 0.1 µg/mL (≈ 0.205 µM); MIC ([11]; M. suipneumoniae NCTC 10110, 6 days, 37° C., read-out: MIC): 0.25 µg/mL (≈ 0.512 µM); MIC (M. suipneumoniae HK(2); M. suipneumoniae HK(2), 6 days, 37° C., read-out: MIC): 0.25 µg/mL (≈ 0.512 µM) |
| COc1ccc(-c2cnc(/C=C(\C)C[C@@H]3OC[C@H](C[C@@H]4O[C@H]4[C@@H](C)[C@H](C)O)[C@@H](O)[C@H]3O)o2)cc1 [Example 4, 5-p-methoxyphenyl-2-(1-normon-2-yl)oxazole A] | 5 µg/mL (≈ 10.6 µM) | 1.25 µg/mL (≈ 2.64 µM) | > 80 µg/mL | 5 µg/mL (≈ 10.6 µM) | 0.625 µg/mL (≈ 1.32 µM) | > 80 µg/mL | > 80 µg/mL | 0.025 µg/mL (≈ 0.0528 µM) | 2.5 µg/mL (≈ 5.28 µM) | 5 µg/mL (≈ 10.6 µM) | > 100 µg/mL | 25 µg/mL (≈ 52.8 µM) | > 100 µg/mL | > 100 µg/mL | 2.5 µg/mL (≈ 5.28 µM) | 5 µg/mL (≈ 10.6 µM) | 5 µg/mL (≈ 10.6 µM) | 5 µg/mL (≈ 10.6 µM) | 20 µg/mL (≈ 42.2 µM) | > 80 µg/mL | MIC (P. mirabilis 889; Proteus mirabilis, P. mirabilis 889, 5% chocolated horse blood agar, 18 hours, read-out: MIC): > 100 µg/mL; MIC [1]: 1 µg/mL (≈ 2.11 µM); MIC (M. suipneumoniae JF 435): 1 µg/mL (≈ 2.11 µM); MIC (M. hyorhinis ATCC 23234): 0.5 µg/mL (≈ 1.06 µM); MIC (M. suipneumoniae Str. 11; STR.11, 144 h): 0.5 µg/mL (≈ 1.06 µM); MIC (M. dispar NCTC 10125): 0.25 µg/mL (≈ 0.528 µM); MIC (M. suipneumoniae UCD 1): 1 µg/mL (≈ 2.11 µM); MIC [5]: 0.05 µg/mL (≈ 0.106 µM); MIC (M. suipneumoniae TAM 6N): 1 µg/mL (≈ 2.11 µM); MIC (M. hyorhinis ATCC 25021): 0.5 µg/mL (≈ 1.06 µM); MIC (M. suipneumoniae MS 16): 0.5 µg/mL (≈ 1.06 µM); MIC [8]: 0.5 µg/mL (≈ 1.06 µM); MIC (M. suipneumoniae NB12; NB12, 144 h): 0.5 µg/mL (≈ 1.06 µM); MIC [11]: 1 µg/mL (≈ 2.11 µM); MIC (M. suipneumoniae HK(2)): 1 µg/mL (≈ 2.11 µM) |
